Data as given in paper PMC7179119, “A New Positron Emission Tomography Probe for Orexin Receptors Neuroimaging” (Molecules, 2020).
Read-outs that look alike come from different tables or passages of the source.

Tests used:
40 other CNS targets = assay: Off-target binding (NIMH PDSP); details: 10 µM
Experimental: (§1) Table S1. Off binding data of CW24.
(§2) The off-target binding assays were performed at PDSP with their standard protocol (https://pdspdb.unc.edu/pdspWeb/content/UNC-CH%20Protocol%20Book.pdf). In radioligand binding assays, CW24 was tested at a single concentration (10 µM) and in quadruplicate in 96-well plates. The binding assays were carried out in a final of volume of 125 µl per well in appropriate binding buffers. The hot ligand concentration is usually at a concentration close to the Kd (unless otherwise indicated). Total binding and nonspecific binding are determined in the absence and presence of 10 µM of the appropriate reference compound, respectively. In brief, plates are usually incubated at room temperature and in the dark for 90 mins. Reactions are stopped by vacuum filtration onto 0.3% polyethyleneimine (PEI) soaked 96-well filter mats using a 96-well Filtermate harvester, followed by three washes with cold wash buffers (for details, see Tables 2 to 24). Scintillation cocktail is then melted onto the microwave-dried filters on a hot plate and radioactivity is counted in a Microbeta counter.
(§3) Receptor % Inhibition 1 % Inhibition 2 % Inhibition 3 % Inhibition 4 Mean±SD %

5-HT2B = target: T1, 5-HT2B (Homo sapiens, UniProt P41595); assay: PDSP off-target radioligand binding assay
T1 construct: NIMH PDSP
Experimental: as §1, §2, §3

GABAA = assay: PDSP off-target radioligand binding assay; details: 10 µM
Experimental: as §1, §2, §3

M2 = target: T2, M2 (Homo sapiens, UniProt P08172); assay: PDSP off-target radioligand binding assay
T2 sequence (P08172 1-466): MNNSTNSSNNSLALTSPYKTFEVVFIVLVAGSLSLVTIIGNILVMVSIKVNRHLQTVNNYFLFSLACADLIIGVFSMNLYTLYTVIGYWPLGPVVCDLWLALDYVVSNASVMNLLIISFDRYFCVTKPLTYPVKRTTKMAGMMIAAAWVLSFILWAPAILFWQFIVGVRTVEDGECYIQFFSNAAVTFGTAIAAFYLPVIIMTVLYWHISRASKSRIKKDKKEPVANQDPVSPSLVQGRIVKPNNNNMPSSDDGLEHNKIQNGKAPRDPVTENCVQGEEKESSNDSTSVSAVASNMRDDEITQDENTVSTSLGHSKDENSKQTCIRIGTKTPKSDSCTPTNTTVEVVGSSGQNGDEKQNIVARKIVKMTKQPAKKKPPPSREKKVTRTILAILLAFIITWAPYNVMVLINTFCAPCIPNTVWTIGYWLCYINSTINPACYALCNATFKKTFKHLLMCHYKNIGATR
Experimental: as §1, §2, §3

SERT = SERT (Homo sapiens, UniProt P31645); assay: PDSP off-target radioligand binding assay
Experimental: as §1, §2, §3

Alpha2B = target: T3, Alpha2B (Homo sapiens, UniProt P18089); assay: PDSP off-target radioligand binding assay
T3 construct: NIMH PDSP
T3 sequence (P18089 1-450): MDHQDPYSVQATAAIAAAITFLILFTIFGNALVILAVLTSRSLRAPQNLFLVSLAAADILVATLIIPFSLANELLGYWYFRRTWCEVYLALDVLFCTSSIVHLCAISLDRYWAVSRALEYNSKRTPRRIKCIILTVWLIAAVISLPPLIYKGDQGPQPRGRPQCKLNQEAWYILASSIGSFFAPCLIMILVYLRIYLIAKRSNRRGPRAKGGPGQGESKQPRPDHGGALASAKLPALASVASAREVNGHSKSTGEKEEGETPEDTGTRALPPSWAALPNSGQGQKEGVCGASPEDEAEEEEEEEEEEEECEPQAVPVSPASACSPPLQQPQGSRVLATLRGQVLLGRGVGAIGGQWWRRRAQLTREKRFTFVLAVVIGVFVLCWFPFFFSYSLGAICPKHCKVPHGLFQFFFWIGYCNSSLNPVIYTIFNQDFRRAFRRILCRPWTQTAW
Experimental: as §1, §2, §3

H2 = H2 (Homo sapiens, UniProt P25021); assay: PDSP off-target radioligand binding assay
Experimental: as §1, §2, §3

D1 = target: T4, D1 (Homo sapiens, UniProt P21728); assay: PDSP off-target radioligand binding assay
T4 construct: NIMH PDSP
Experimental: as §1, §2, §3

D2 = target: T5, D2 (Homo sapiens, UniProt P14416); assay: PDSP off-target radioligand binding assay
T5 construct: NIMH PDSP
Experimental: as §1, §2, §3

H4 = H4 (Homo sapiens, UniProt Q9H3N8); assay: PDSP off-target radioligand binding assay
Experimental: as §1, §2, §3

5-HT2A = target: T6, 5-HT2A (Homo sapiens, UniProt P28223); assay: PDSP off-target radioligand binding assay
T6 construct: NIMH PDSP
Experimental: as §1, §2, §3

5-HT1D = target: T7, 5-HT1D (Homo sapiens, UniProt P28221); assay: PDSP off-target radioligand binding assay
T7 construct: NIMH PDSP
Experimental: as §1, §2, §3

D3 = target: T8, D3 (Homo sapiens, UniProt P35462); assay: PDSP off-target radioligand binding assay
T8 construct: NIMH PDSP
Experimental: as §1, §2, §3

5-HT6 = target: T9, 5-HT6 (Homo sapiens, UniProt P50406); assay: PDSP off-target radioligand binding assay
T9 construct: NIMH PDSP
Experimental: as §1, §2, §3

[1] = quadruplicate, read-out: Mean±SD % inhibition
[2] = replicate 1, read-out: % Inhibition 1
[3] = replicate 2, read-out: % Inhibition 2
[4] = replicate 3, read-out: % Inhibition 3
[5] = replicate 4, read-out: % Inhibition 4

T1 sequence (P41595 whole entry, species assumed): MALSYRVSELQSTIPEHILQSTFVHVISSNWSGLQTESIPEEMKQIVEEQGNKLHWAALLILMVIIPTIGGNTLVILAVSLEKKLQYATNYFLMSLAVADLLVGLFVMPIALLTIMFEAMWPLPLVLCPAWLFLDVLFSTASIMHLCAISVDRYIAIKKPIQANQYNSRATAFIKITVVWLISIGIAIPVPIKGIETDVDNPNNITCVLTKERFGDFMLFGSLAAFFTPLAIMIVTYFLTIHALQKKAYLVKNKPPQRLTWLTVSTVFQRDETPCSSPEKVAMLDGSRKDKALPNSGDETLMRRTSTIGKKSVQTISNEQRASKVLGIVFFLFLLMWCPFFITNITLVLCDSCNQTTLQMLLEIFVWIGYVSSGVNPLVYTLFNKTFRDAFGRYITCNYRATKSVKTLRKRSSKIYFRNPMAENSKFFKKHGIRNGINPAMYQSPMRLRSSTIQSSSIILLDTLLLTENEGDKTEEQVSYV
Sequence of H2 (P25021 whole entry): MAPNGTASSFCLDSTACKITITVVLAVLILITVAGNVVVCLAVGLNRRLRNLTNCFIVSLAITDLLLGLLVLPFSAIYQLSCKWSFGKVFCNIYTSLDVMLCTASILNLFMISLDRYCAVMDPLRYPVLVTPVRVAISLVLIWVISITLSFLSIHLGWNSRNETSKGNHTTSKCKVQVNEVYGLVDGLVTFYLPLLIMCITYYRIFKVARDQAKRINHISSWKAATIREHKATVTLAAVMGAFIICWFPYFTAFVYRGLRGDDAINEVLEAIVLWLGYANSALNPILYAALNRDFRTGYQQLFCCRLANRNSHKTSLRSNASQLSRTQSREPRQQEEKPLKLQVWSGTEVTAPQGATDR
T7 sequence (P28221 whole entry, species assumed): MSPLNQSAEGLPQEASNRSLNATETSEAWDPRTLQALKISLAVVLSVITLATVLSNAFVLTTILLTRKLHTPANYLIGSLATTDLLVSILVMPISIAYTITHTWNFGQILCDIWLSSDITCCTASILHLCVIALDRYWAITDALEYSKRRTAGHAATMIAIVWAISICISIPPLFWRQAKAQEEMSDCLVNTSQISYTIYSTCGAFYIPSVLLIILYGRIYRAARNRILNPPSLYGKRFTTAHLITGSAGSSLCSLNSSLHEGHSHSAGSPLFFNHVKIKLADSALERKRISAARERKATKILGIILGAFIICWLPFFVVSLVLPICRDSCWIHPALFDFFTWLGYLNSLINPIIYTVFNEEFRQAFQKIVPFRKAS
T5 sequence (P14416 whole entry): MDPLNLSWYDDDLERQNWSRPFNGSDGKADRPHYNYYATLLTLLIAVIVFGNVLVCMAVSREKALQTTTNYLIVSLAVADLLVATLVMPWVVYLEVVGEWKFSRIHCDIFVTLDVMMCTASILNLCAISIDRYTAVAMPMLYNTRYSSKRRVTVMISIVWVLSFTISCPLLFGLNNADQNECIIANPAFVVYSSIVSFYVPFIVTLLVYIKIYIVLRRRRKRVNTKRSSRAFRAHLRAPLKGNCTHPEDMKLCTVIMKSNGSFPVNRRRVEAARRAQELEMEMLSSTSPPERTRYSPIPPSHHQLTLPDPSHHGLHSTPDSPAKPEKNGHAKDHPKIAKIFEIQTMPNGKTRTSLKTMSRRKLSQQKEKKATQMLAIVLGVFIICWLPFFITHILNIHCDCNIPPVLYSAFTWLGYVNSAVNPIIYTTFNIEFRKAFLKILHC
T4 sequence (P21728 whole entry): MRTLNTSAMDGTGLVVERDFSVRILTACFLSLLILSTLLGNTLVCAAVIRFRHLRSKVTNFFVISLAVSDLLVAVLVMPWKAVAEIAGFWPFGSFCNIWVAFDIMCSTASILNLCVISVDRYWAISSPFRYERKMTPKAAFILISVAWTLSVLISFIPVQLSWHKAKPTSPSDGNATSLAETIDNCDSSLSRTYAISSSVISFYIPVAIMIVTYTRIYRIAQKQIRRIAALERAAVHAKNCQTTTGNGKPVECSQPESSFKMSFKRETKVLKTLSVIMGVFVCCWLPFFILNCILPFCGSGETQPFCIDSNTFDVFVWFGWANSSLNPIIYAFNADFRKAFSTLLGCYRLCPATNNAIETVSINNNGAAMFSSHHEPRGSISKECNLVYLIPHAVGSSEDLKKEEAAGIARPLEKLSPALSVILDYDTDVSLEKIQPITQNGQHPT
T6 sequence (P28223 whole entry, species assumed): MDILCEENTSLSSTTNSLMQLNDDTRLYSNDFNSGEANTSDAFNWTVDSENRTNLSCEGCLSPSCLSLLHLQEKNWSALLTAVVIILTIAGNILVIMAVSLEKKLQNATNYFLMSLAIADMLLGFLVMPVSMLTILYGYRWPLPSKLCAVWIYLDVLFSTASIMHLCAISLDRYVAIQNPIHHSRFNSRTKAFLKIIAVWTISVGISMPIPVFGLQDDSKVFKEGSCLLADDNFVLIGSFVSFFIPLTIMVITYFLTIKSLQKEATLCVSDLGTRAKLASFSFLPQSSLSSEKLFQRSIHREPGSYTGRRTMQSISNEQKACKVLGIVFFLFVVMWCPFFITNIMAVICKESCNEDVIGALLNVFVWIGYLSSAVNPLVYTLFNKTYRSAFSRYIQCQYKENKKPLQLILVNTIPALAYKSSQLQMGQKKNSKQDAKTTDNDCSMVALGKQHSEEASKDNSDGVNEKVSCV
Sequence of SERT (P31645 whole entry, species assumed): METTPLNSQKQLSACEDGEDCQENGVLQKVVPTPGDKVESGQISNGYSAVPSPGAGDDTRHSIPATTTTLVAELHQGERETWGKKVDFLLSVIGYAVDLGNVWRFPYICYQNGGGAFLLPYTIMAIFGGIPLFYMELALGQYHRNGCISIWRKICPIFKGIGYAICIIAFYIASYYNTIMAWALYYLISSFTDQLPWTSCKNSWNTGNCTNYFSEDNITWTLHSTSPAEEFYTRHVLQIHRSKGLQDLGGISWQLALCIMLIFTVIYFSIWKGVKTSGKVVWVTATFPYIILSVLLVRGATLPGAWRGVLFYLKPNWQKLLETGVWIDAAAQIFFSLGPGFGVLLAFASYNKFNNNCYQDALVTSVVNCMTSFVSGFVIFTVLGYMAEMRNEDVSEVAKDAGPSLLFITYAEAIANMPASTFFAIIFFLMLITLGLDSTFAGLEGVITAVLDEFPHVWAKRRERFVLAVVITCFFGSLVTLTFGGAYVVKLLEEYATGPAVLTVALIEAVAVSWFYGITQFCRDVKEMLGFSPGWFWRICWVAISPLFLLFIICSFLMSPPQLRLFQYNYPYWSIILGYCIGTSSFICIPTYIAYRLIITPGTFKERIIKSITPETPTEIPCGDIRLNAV
T8 sequence (P35462 whole entry): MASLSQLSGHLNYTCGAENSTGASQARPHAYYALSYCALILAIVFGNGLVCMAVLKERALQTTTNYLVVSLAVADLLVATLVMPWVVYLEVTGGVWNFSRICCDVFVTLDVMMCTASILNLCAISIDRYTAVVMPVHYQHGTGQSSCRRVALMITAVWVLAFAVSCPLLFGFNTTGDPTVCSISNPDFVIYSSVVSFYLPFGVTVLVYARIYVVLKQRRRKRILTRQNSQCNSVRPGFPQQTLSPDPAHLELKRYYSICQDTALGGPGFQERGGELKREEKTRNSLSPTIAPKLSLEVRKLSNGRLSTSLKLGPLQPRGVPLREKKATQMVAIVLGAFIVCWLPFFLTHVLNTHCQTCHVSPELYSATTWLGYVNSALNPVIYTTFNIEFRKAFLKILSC
T9 sequence (P50406 whole entry, species assumed): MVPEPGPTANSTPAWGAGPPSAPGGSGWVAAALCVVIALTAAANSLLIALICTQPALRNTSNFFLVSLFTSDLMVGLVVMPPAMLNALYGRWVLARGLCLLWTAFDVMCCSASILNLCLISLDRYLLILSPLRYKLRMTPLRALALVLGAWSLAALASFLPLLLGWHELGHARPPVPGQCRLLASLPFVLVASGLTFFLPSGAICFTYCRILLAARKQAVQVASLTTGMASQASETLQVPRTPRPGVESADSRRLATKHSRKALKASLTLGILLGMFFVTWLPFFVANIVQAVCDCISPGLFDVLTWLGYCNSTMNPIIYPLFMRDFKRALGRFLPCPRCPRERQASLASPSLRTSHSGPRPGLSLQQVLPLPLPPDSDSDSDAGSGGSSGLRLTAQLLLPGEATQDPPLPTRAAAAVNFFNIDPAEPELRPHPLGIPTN
Sequence of H4 (Q9H3N8 whole entry): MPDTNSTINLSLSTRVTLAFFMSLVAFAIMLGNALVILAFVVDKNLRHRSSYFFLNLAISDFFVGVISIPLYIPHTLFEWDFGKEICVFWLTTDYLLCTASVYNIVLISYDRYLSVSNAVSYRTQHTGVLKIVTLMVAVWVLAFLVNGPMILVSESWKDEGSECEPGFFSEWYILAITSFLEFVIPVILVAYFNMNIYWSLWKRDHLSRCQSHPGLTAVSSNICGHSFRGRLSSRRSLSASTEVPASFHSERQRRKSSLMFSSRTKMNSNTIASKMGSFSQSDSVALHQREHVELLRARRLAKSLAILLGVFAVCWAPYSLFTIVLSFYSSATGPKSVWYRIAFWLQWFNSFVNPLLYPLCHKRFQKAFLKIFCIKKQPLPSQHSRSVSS

Q: With `COc1ccnc(N2CCC3(CCCN(Cc4cn(C)c5ccccc45)C3=O)CC2)n1` [CW24] as the compound, how does the “selectivity for OXRs compared to 40 other CNS targets” value (40 other CNS targets) read?
A: selective

Q: What about the inhibition at 10 µM (5-HT2B; [1]) of the same compound?
A: 21.6 ± 7.7%

Q: And the inhibition at 10 µM (5-HT2B; [2])?
A: 45.9%

Q: And the inhibition at 10 µM (5-HT2B; [3])?
A: 11.3%

Q: What about the inhibition at 10 µM (5-HT2B; [4]) of the same compound?
A: 11.2%

Q: What about the inhibition at 10 µM (5-HT2B; [5]) of the same compound?
A: 17.8%

Q: And the “Mean±SD % inhibition” value (GABAA; quadruplicate)?
A: 11.56 ± 11.5%

Q: What about the “% Inhibition 1” value (GABAA; replicate 1) of the same compound?
A: 24.87%

Q: What about the “% Inhibition 2” value (GABAA; replicate 2) of the same compound?
A: 0.04%

Q: What about the “% Inhibition 3” value (GABAA; replicate 3) of the same compound?
A: 4%

Q: What about the “% Inhibition 4” value (GABAA; replicate 4) of the same compound?
A: 17.31%

Q: What about the inhibition at 10 µM (M2; [1]) of the same compound?
A: -0.08 ± 16.7%

Q: And the inhibition at 10 µM (M2; [2])?
A: -1.12%

Q: What about the inhibition at 10 µM (M2; [3]) of the same compound?
A: -4.61%

Q: What about the inhibition at 10 µM (M2; [4]) of the same compound?
A: -17.4%

Q: And the inhibition at 10 µM (M2; [5])?
A: 22.8%

Q: What about the inhibition at 10 µM (SERT; [1]) of the same compound?
A: 10.8 ± 11.9%

Q: What about the inhibition at 10 µM (SERT; [2]) of the same compound?
A: 10.6%

Q: What about the inhibition at 10 µM (SERT; [3]) of the same compound?
A: -3.59%

Q: What about the inhibition at 10 µM (SERT; [4]) of the same compound?
A: 10.6%

Q: What about the inhibition at 10 µM (SERT; [5]) of the same compound?
A: 25.6%

Q: What about the inhibition at 10 µM (Alpha2B; [1]) of the same compound?
A: -9.5 ± 13.4%

Q: And the inhibition at 10 µM (Alpha2B; [2])?
A: -8.15%

Q: What about the inhibition at 10 µM (Alpha2B; [3]) of the same compound?
A: -23.6%

Q: What about the inhibition at 10 µM (Alpha2B; [4]) of the same compound?
A: -14.5%

Q: And the inhibition at 10 µM (Alpha2B; [5])?
A: 8.29%

Q: And the inhibition at 10 µM (H2; [1])?
A: 24.2 ± 1.43%

Q: And the inhibition at 10 µM (H2; [2])?
A: 25.4%

Q: What about the inhibition at 10 µM (H2; [3]) of the same compound?
A: 24.4%

Q: What about the inhibition at 10 µM (H2; [4]) of the same compound?
A: 24.8%

Q: And the inhibition at 10 µM (H2; [5])?
A: 22.1%

Q: What about the inhibition at 10 µM (D1; [1]) of the same compound?
A: 17.9 ± 12.8%

Q: What about the inhibition at 10 µM (D1; [2]) of the same compound?
A: 22.7%

Q: What about the inhibition at 10 µM (D1; [3]) of the same compound?
A: -0.84%

Q: And the inhibition at 10 µM (D1; [4])?
A: 21.9%

Q: And the inhibition at 10 µM (D1; [5])?
A: 28%

Q: And the inhibition at 10 µM (D2; [1])?
A: -1.7 ± 19.3%

Q: What about the inhibition at 10 µM (D2; [2]) of the same compound?
A: -8.12%

Q: What about the inhibition at 10 µM (D2; [3]) of the same compound?
A: 21.4%

Q: And the inhibition at 10 µM (D2; [4])?
A: -24.2%

Q: What about the inhibition at 10 µM (D2; [5]) of the same compound?
A: 4.13%

Q: And the inhibition at 10 µM (H4; [1])?
A: 3.44 ± 8.21%

Q: And the inhibition at 10 µM (H4; [2])?
A: -8.25%

Q: And the inhibition at 10 µM (H4; [3])?
A: 9.91%

Q: What about the inhibition at 10 µM (H4; [4]) of the same compound?
A: 8.32%

Q: What about the inhibition at 10 µM (H4; [5]) of the same compound?
A: 3.76%

Q: What about the inhibition at 10 µM (5-HT2A; [1]) of the same compound?
A: 12.3 ± 15.4%

Q: And the inhibition at 10 µM (5-HT2A; [2])?
A: 25.7%

Q: What about the inhibition at 10 µM (5-HT2A; [3]) of the same compound?
A: 20.1%

Q: What about the inhibition at 10 µM (5-HT2A; [4]) of the same compound?
A: 12.8%

Q: What about the inhibition at 10 µM (5-HT2A; [5]) of the same compound?
A: -9.45%

Q: What about the inhibition at 10 µM (5-HT1D; [1]) of the same compound?
A: 23.5 ± 9.4%

Q: What about the inhibition at 10 µM (5-HT1D; [2]) of the same compound?
A: 32.1%

Q: What about the inhibition at 10 µM (5-HT1D; [3]) of the same compound?
A: 20%

Q: What about the inhibition at 10 µM (5-HT1D; [4]) of the same compound?
A: 11.9%

Q: What about the inhibition at 10 µM (5-HT1D; [5]) of the same compound?
A: 30.2%

Q: And the inhibition at 10 µM (D3; [1])?
A: -4.9 ± 5.5%

Q: And the inhibition at 10 µM (D3; [2])?
A: 3.09%

Q: What about the inhibition at 10 µM (D3; [3]) of the same compound?
A: -9.41%

Q: And the inhibition at 10 µM (D3; [4])?
A: -6.79%

Q: And the inhibition at 10 µM (D3; [5])?
A: -6.5%

Q: What about the inhibition at 10 µM (5-HT6; [1]) of the same compound?
A: 5.73 ± 17.3%

Q: What about the inhibition at 10 µM (5-HT6; [2]) of the same compound?
A: 17.7%

Q: And the inhibition at 10 µM (5-HT6; [3])?
A: 23.2%

Q: And the inhibition at 10 µM (5-HT6; [4])?
A: -12.3%

Q: And the inhibition at 10 µM (5-HT6; [5])?
A: -5.73%
